Data reported in US12097235B2, “Anti-acne pharmaceutical compositions” (priority 2018, dated 2024).
Converted amounts (≈) assume the structure as drawn. Blank lines part the entries; values can stand above or below the compound they belong to.

Assays:
[1] = tested on: Cutibacterium acnes (ATCC 6919); experiment: Antibacterial assay (MIC, broth microdilution, Presto Blue); type: cell-based; details: ATCC6919, C. acnes ATCC 6919, 72 hours, anaerobic, read-out: minimum inhibitory concentration (MIC)
Protocol: The ethanolic extract of Plectranthus […] tested against Cutibacterium acnes (ATCC 6919). The C. acnes bacteria was cultured from a Kwik-Stick on mouse heart and brain agar and then incubated at 37° C. for 72 hours under anaerobic conditions before the assay was done. The 72 hour old bacterial culture was dissolved in brain heart infusion broth and the suspension was adjusted to a 0.5 McFarland standard turbidity. This led to 10^5-10^6 colony forming units (CFU)/ml. In a sterile 96-well plate, 100 μl of the samples from the stock solution that consisted of the plant extracts (2 mg/ml dissolved in 10% dimethyl sulphoxide (DMSO)) and tetracycline the positive control (0.2 mg/ml) was diluted with broth. Twofold serial dilutions were done in broth over a range to give the concentrations 500-3.9 μg/ml for the plant extract and 50-0.3 μg/ml for tetracycline. To all the wells of the 96-well plate, 100 μl of bacterial suspension was added. The solvent control wells contained 2.5% DMSO with bacterial suspension and no plant samples and the negative control, bacterial suspension with no plant samples. The plates were incubated at 37° C. for 72 hours under anaerobic conditions.

MMP-9 enzyme = biological target: T1, MMP-9 enzyme (Homo sapiens, UniProt P14780); experiment: Matrix metalloproteinase-9 assay (colorimetric kit); type: biochemical; details: at 0.411 μg/ml, single concentration
T1 construct: purchased Enzo Life Sciences BML-AK410
Protocol: The MMP-9 Colorimetric Drug Discovery Kit (BML-AK410) from Enzo Life Sciences was used. The experiment was carried out as described in the instruction manual. The MMP chromogenic substrate (Ac-PLG-[2-mercapto-4-methyl-pentanoyl]-LG-OC2H5) and the inhibitor N-Isobutyl-N-(4-methoxyphenylsulfonyl)glycyl hydroxamic acid (NNGH) was thawed to room temperature. The inhibitor was diluted 1/200 in assay buffer (50 mM HEPES, 10 mM CaCl2, 0.05% Brij-35, 1 mM DTNB, pH 7.5) and warmed until 37° C. The substrate was diluted 1/25 in assay buffer to the required volume. The MMP-9 enzyme was diluted in assay buffer to 1/60 and warmed until 37° C. just before the assay. The plant extract was dissolved in dimethyl sulfoxide (DMSO) to a starting concentration of 2 mg/ml.
In the plant extract wells, 50 μl of plant extract and 90 μl of buffer was added to the first well of the 96 well plate (½ volume). To the rest of the plant extract wells, 70 μl of buffer was added and the plant extracts serially diluted. Assay buffer was plated in the rest of the relevant wells as follows: blank 90 μl, control 70 μl, and NNGH 50 μl. […] The plates were continuously read at A412nm by using a BIO-TEK Power Wave Multiwell plate reader (A.D.P., Weltevreden Park, South Africa) at one (1) minute intervals for twenty (20) minutes using KC Junior software (Highland Park, Winooski, Vermont, USA).

[2] = DPPH radical scavenging assay; type: biochemical
Protocol: The antioxidant activities of Plectranthus […] ethanolic extract was investigated using 1,1-Diphenyl-2-picrylhydrazyl (DPPH) free radical scavenging assay as described by Mavundza (Mavundza, 2010). To the top wells of a 96-well ELISA plate 200 μl of distilled water was added and to the remaining wells 110 μl of distilled water as a medium. Twenty microliters of plant extract and the controls was added to the first top wells that followed a double dilution. To each of the wells 90 μl of 90 μM DPPH ethanolic solution was added and left to incubate covered with aluminium foil for 30 minutes at room temperature. The final concentrations for the Plectranthus […] ethanolic extracts ranged from 3.9 to 500 μg/ml (Mavundza, 2010). […] The radical scavenging capacities of the extracts were determined by using a BIO-TEK Power Wave Multiwell plate reader ([…], South Africa) at 515 nm using KC Junior software (Highland Park, Winooski, Vermont, USA) to measure the disappearance of DPPH at 515 nm. The radical scavenging activity was determined as a percentage DPPH radical-scavenging that was calculated by the following equation, where AC is the absorbance of the control solution that only contains DPPH and AS is the absorbance of the plant sample in DPPH solution: % DPPH radical-scavenging=(AC-AS)/AC×100 […]

[3] = NO antioxidant (nitric oxide scavenging) assay; type: biochemical
[4] = tested on: COX-2 protein levels in HT-29 cells; details: at 3.6 μg/ml; cited from earlier work

T1 sequence (P14780 107-444 limits assumed): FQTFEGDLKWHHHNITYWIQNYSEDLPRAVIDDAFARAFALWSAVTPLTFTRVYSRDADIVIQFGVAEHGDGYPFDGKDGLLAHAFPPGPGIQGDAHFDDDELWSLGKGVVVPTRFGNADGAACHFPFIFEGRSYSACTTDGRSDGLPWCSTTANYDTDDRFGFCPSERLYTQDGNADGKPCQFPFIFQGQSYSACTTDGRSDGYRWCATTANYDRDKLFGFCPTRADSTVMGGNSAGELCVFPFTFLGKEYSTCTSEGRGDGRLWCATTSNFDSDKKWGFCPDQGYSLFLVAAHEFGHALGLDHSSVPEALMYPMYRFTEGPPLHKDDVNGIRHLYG

Compound: CN(C)[C@@H]1C(O)=C(C(N)=O)C(=O)[C@@]2(O)C(O)=C3C(=O)c4c(O)cccc4[C@@](C)(O)[C@H]3C[C@@H]12 [tetracycline]
MIC [1]: 0.78 mg/L (≈ 1.76 µM)

Compound: COc1ccc(S(=O)(=O)N(CC(=O)NO)CC(C)C)cc1 [positive control, N-Isobutyl-N-(4-methoxyphenylsulfonyl)glycyl hydroxamic acid]
MMP-9 inhibition (MMP-9 enzyme): 96%

DPPH antioxidant activity IC50 [2]: 9.0 ± 2.0 mg/L
nitric oxide (NO) antioxidant activity IC50 [3]: 65.8 ± 5.9 mg/L
Compound: O=C1O[C@H]([C@@H](O)CO)C(O)=C1O [vitamin C, L-ascorbic acid]

MIC [1]: 62.5 mg/L (≈ 218 µM)
Compound: O=c1cc(-c2ccc(O)c(O)c2)oc2cc(O)cc(O)c12 [Luteolin]

Compound: O=C(/C=C/c1ccc(O)c(O)c1)O[C@H](Cc1ccc(O)c(O)c1)C(=O)O [rosmarinic acid]
effect on COX-2 protein levels [4]: reduced COX-2 protein levels in HT-29 cells to levels comparable to that of the control cells
